Experiments:
[1] = Stability under light in DMSO by UV-vis; type: physicochemical; conditions: first 2.5 h
Excerpt: The stability of the stock solutions and the effect of diffuse solar irradiation were monitored in DMSO by UV–visible (UV–vis, see Methods) spectra in the 260 to 860 nm wavelength range, and the path length was 1 cm. The initial sample was divided equally into two portions for the stability studies; one portion was irradiated with diffuse light and followed over time, while the other one was stored, protected from light, and measured 1 day after dissolution.

glutathione (GSH) = assay: Reaction with glutathione followed by UV-vis; conditions: 30-fold GSH, ~20 μM complex, 60% (v/v) DMSO/phosphate buffer pH 7.4, 25.0 °C
Method: Reactions between the title compounds and GSH were also followed by UV–vis spectrophotometry under an inert atmosphere to overcome oxidation of GSH by air oxygen. Samples contained the metal complexes at low concentrations (∼20 μM) and were prepared using 60% (v/v) DMSO/phosphate buffer solution (pH 7.4) to avoid precipitation. The reactants were separated in the pockets of a tandem cuvette, followed by deoxygenation by argon bubbling. The separate solutions were mixed at 1:30 metal complex:GSH molar ratios, and UV–vis spectra were recorded. Argon was continuously passed over the sample during the whole measurement.

[2] = HPLC analysis of aqueous solution integrity; type: physicochemical; conditions: 20 μM in 3% DMSO aqueous solution, after 24 h, 254 nm
Method: Prior to the injection to the column, 20 μL was taken and diluted with 180 μL of HPLC-grade acetonitrile at various time points (t = 0 and 24 h). 20 μL of this diluted sample was injected in the Zorbax Eclipse Plus C18 column (4.6 × 100 mm, 3.5 μm): flow rate, 1 mL/min; detection, UV 254 nm; flow solvent system A/B (acetonitrile/water, v/v): 70:30 and analyzed with 254 nm radiation up to 10 min.

[3] = n-Octanol/water and n-octanol/Tris buffer shake-flask partitioning; type: physicochemical
Method: The distribution coefficient values (D 7.4) of the compounds were determined by the traditional shake-flask method in n-octanol/buffered aqueous solution at pH 7.40 for 5 mM Tris HCl with 0.1 M KCl and at pH 7.4 at 25.0 ± 0.2 °C. The ligand and complexes were dissolved in n-octanol (presaturated by the aqueous buffer) because of the very low aqueous solubility. The aqueous buffer solution and n-octanol ratio was 1:1 due to the expected high lipophilicity of the compounds. First, samples were mixed with vertical rotation (∼20 rpm) for 3 h, and then the two phases were separated by centrifugation at 3000 rpm (∼1000g) for 3 min. After separation, UV–vis spectra of the compounds were recorded in both phases. Spectra of the n-octanol phases were compared to those of the original n-octanol stock solutions.
The distribution coefficient values were also determined using unbuffered water and octanol (also presaturated) with a ratio of 1:1.

[4] = Stability and DMSO coordination in DMSO by 1H NMR; type: physicochemical
Method: (a) Complex (2) solutions in DMSO (D2O) investigated by NMR spectroscopy: Trying to investigate if the higher concentration is responsible for the complex transformation process in DMSO, we monitored the solution of complex (2) at 0.5 and 1 mM by ^1H NMR spectroscopy (Figure a). We could clearly see that complex (2) is only detected pure at a concentration of 0.5 mM.
NMR spectra were recorded at room temperature, using a two-channel 300 MHz Bruker Avance III-HD Nanobay spectrometer equipped with a 5 mm BBO 1H/X probe and Z gradients, located at the Interdepartmental Investigation Service (SIdI). DMSO-d 6 was used as the solvent (containing 0.05% (v/v) tetramethylsilane (TMS) as a reference). Chemical shift values are given in parts per million relative to the residual TMS signals. The following abbreviations were used: s (singlet), d (doublet), and m (multiplet). Elemental analyses were performed on a LECO CHNS-932 elemental analyzer located at SIdI. Mass spectra were recorded using FAB (fast atom bombardment) in a Waters VG AutoSpec mass spectrometry unit and using MALDI (matrix-assisted laser desorption/ionization) with a Bruker Ultraflex III (MALDI-TOF/TOF) mass spectrometry unit, both located at SIdI. Infrared (IR) spectra were recorded using a PerkinElmer Model 283 spectrometer with an attenuated total reflectance (ATR) MIRacle Single Reflection Horizontal accessory and equipped with CsI optical windows for spectra between 600 and 200 cm^–1 in Nujol mull preparations. Absorbance spectra were recorded using a Thermo Evolution 220 spectrophotometer to record the UV–visible region, equipped with temperature control within ±0.1 °C. Viscosity measurements were performed using an A&D SV-1A vibro viscometer. HPLC analyses were carried out utilizing a 1200 Infinity series HPLC system provided by Agilent Technologies coupled to a photodiode array detector.

[5] = molecular target: T1, hen egg white lysozyme (HEWL) (Gallus gallus, UniProt P00698); assay: Reaction with lysozyme followed by UV-vis at 280 nm, pseudo-first-order kinetics; type: binding; conditions: metal:protein 3:1, 5 mM Tris/3% DMSO, 37 °C, absorbance at 280 nm
T1 construct: a model protein, namely HEWL (hen egg white lysozyme), was also studied; from tissue; host or cells: hen egg white (from the protein's name)
T1 sequence (P00698 19-147): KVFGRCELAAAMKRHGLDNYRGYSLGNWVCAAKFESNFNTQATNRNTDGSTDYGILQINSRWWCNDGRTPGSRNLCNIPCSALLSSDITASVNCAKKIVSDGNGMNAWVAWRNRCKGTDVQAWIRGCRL
Method: The interaction of complexes (2) and (3) with hen egg white lysozyme (HEWL) was investigated using a 10^–5 M solution of the protein. Lysozyme is a widely used model protein for studying the binding of potential metallodrugs. The sample preparation for this assay was carried out using the same protocol of the samples for the DNA interactions studies by UV–vis spectrophotometry. The integrity of the enzyme was checked in each experiment, with a comparison of fresh and incubated samples. UV–vis spectra were recorded before and after incubation with the complex (dissolved in 97% 5 mM Tris/3% DMSO) for 24 h at 37 °C. A metal to protein ratio of 3:1 was used for these studies, a ratio that affords similar results to 10:1 and eases the sample preparation. The experimental time-dependent profiles of the spectra were analyzed as pseudo-first-order reactions by plotting the variation of the absorbance as a function of time.

calf thymus-DNA (CT-DNA) = assay: UV-vis titration with CT-DNA; type: binding; conditions: complex/DNA ratio 0 to 0.79; 5 mM Tris, 50 mM NaCl, pH 7.40, 25 °C
Method: To investigate the potential binding ability of the palladium complexes (2) and (3) with DNA, UV–vis titrations (240 to 700 nm) were performed at room temperature. During the titrations, the CT-DNA concentration (5.08 × 10^–5 M) was kept constant, while the concentration of each complex (0 to 2.00 × 10^–5 M) was varied. The changes in the typical absorbance of CT-DNA at 260 nm were monitored after equilibration (10 min) and after 1 h of incubation at 37 °C. […] Control experiments with DMSO were performed, and no changes in the CT-DNA spectrum were observed.

Clc1ccc(N=C2N[N+](=Cc3c[nH]cn3)[Pd-2]3([S]C(Nc4ccc(Cl)cc4)=N[N+]3=Cc3c[nH]cn3)[S]2)cc1 (stereo not shown) [(2), Bis(1H-imidazole-4-carboxaldehyde-4N-p-chlorophenylthiosemicarbazonato)palladium(II)]
spectral changes when not protected from light [1]: only minor changes
time to equilibrium of the reaction with GSH (glutathione (GSH)): ≤ 30 min
integral of the HPLC signal of intact complex [2]: only slightly diminished
log D o/t ([3]; n-octanol/5 mM Tris HCl with 0.1 M KCl, pH 7.40, 25.0 °C): +2.32 ± 0.16
log D o/w ([3]; n-octanol/pure (unbuffered) water, 1:1): +1.70 ± 0.06
molar fraction of DMSO-coordinated species (complex (3)) formed ([4]; 0.5 mM): 0%
molar fraction of DMSO-coordinated species (complex (3)) formed ([4]; 3 mM, does not increase over 24 h): 8%
time 1H NMR spectrum remains stable ([4]; in DMSO): up to 24 h
observed rate constant k obs [5]: (8.83 ± 0.05) × 10^–5 s^–1
change of CT-DNA absorption at 260 nm (calf thymus-DNA (CT-DNA)): absorption values of DNA–complex samples increase

Source: article PMC12648656, “Palladium(II) Complexes with Noncovalent Interactions with DNA: Solution Speciation Controlled by Solvent Identity, pH, and Concentration” (Inorganic Chemistry, 2025)
